Results on 34 compounds are retold here after patent publication US9320276B2, “N-hetarylmethyl pyrazolylcarboxamides” (BAYER INTELLECTUAL PROPERTY GMBH, priority 2010, dated 2016).

Usually logP stands for a log measure of how a compound divides between an organic and an aqueous phase.

The test system of one data set is Sphaerotheca fuliginea. Kind of data set: in vivo preventive test on Sphaerotheca fuliginea (cucumber). The conditions noted are these: 500 ppm of active ingredient, evaluated 7 days after inoculation. On the procedure:
Solvent: 49 parts by weight of N,N-dimethylformamide Emulsifier: 1 part by weight of Alkylarylpolyglycolether To produce a suitable preparation of active compound, 1 part by weight of active compound is mixed with the stated amounts of solvent and emulsifier, and the concentrate is diluted with water to the desired concentration. To test for preventive activity, young plants are sprayed with the preparation of active compound at the stated rate of application. One day after this treatment, the plants are inoculated with an aqueous spore suspension of Sphaerotheca fuliginea. Then the plants are placed in a greenhouse at approximately 23° C. and a relative atmospheric humidity of approximately 70%. The test is evaluated 7 days after the inoculation. 0% means an efficacy which corresponds to that of the untreated control, while an efficacy of 100% means that no disease is observed.

Data set [1] can be described thus: logP by HPLC on reversed-phase column (EEC Directive 79/831 Annex V.A8). The format is physicochemical. Conditions: 40° C., 0.1% aqueous formic acid and acetonitrile, linear gradient 10% to 90% acetonitrile. The protocol:
In table 1, the logP values were determined in accordance with EEC Directive 79/831 Annex V.A8 by HPLC (High Performance Liquid Chromatography) on a reversed-phase column (C 18), using the method described below: Temperature: 40° C.; Mobile phases: 0.1% aqueous formic acid and acetonitrile; linear gradient from 10% acetonitrile to 90% acetonitrile. Calibration was carried out using unbranched alkan-2-ones (comprising 3 to 16 carbon atoms) with known logP values (determination of the logP values by the retention times using linear interpolation between two successive alkanones). lambda-max-values were determined using UV-spectra from 200 nm to 400 nm and the peak values of the chromatographic signals.

Another data set deals with Pyrenophora teres. Kind of data set: in vivo preventive test on Pyrenophora teres (barley). The conditions noted are these: 500 ppm of active ingredient, evaluated 7-9 days after inoculation. The protocol:
Solvent: 49 parts by weight of N,N-dimethylformamide Emulsifier: 1 part by weight of alkylaryl polyglycol ether To produce a suitable preparation of active compound, 1 part by weight of active compound is mixed with the stated amounts of solvent and emulsifier, and the concentrate is diluted with water to the desired concentration. To test for preventive activity, young plants are sprayed with the preparation of active compound at the stated rate of application. One day after this treatment, the plants are inoculated with an aqueous spore suspension of Pyrenophora teres. The plants remain for 48 hours in an incubation cabinet at 22° C. and a relative atmospheric humidity of 100%. Then the plants are placed in a greenhouse at a temperature of approximately 20° C. and a relative atmospheric humidity of approximately 80%. The test is evaluated 7-9 days after the inoculation. 0% means an efficacy which corresponds to that of the untreated control while an efficacy of 100% means that no disease is observed.

In another data set the test system is Alternaria solani. Description: in vivo preventive test on Alternaria solani (tomato). Conditions: 500 ppm of active ingredient, evaluated 7 days after inoculation. On the procedure: Solvent: 49 parts by weight of N,N-dimethylformamide Emulsifier: 1 part by weight of Alkylarylpolyglycolether To produce a suitable preparation of active compound, 1 part by weight of active compound is mixed with the stated amounts of solvent and emulsifier, and the concentrate is diluted with water to the desired concentration. To test for preventive activity, young plants are sprayed with the preparation of active compound at the stated rate of application. One day after this treatment, the plants are inoculated with an aqueous spore suspension of Alternaria solani. The plants remain for one day in an incubation cabinet at approximately 22° C. and a relative atmospheric humidity of 100%. Then the plants are placed in an incubation cabinet at approximately 20° C. and a relative atmospheric humidity of 96%. The test is evaluated 7 days after the inoculation. 0% means an efficacy which corresponds to that of the untreated control while an efficacy of 100% means that no disease is observed.

Setting [2] is: HPLC on reversed-phase column (C 18).
Where [3] appears, read: HPLC, reversed-phase column (C 18).

`Cn1nc(C(F)F)c(C(=O)NC2(c3cccs3)CCCC2)c1F` [Example 34] gave an Efficacy in the data set with Sphaerotheca fuliginea of 70%. This compound also came in with a logP in data set [1] (setting [2]) of 2.96.

In the case of `CC(c1cc(Cl)sc1Cl)N(C(=O)c1c(C(F)F)nn(C)c1Cl)C1CC1` (centres unmarked) [Example 127], the logP in data set [1] (setting [2]) was 4.24. Further, the Efficacy in the data set on Pyrenophora teres and in the data set on Alternaria solani was 95% in each case.

Consider `CC(c1csc2ccccc12)N(C(=S)c1c(C(F)F)nn(C)c1F)C1CC1` (racemic) [Example 86], for which, in data set [1] (setting [2]), the logP was 4.44. The Efficacy was 100% with Pyrenophora teres and 70% in the data set on Alternaria solani.

`Cn1nc(C(F)F)c(C(=S)N(Cc2csc3ccc(Cl)cc23)C2CC2)c1F` [Example 145]: the figures for the Efficacy in the data set with Sphaerotheca fuliginea, in the data set on Pyrenophora teres and in the data set with Alternaria solani were 93%, 100% and 90%, respectively. The logP in data set [1] (setting [2]) is 4.36.

`Cc1nc(-c2ccccc2)sc1CN(C)C(=O)c1c(C(F)F)nn(C)c1F` [Example 149] registered a logP in data set [1] (setting [2]) of 2.77. The Efficacy in the data set with Pyrenophora teres and in the data set with Alternaria solani was 80% each time.

`Cn1nc(C(F)F)c(C(=O)N(Cc2cc(-c3ccccc3)no2)C2CC2)c1F` [Example 111]: the logP in data set [1] (setting [2]) is reported as 2.92. Moreover, the Efficacy came out at 100% in the data set on Pyrenophora teres and 95% in the data set on Alternaria solani.

The compound `CN(Cc1cscc1Br)C(=O)c1c(C(F)F)nn(C)c1F` [Example 133] came in with a logP in data set [1] (setting [2]) of 2.52. Moreover, the Efficacy in the data set on Pyrenophora teres was determined as 90%; with Alternaria solani, 70%.

Turning to `Cn1nc(C(F)F)c(C(=S)N(Cc2c(Cl)cncc2Cl)C2CC2)c1F` [Example 117], the Efficacy with Sphaerotheca fuliginea was 95%; in the data set on Pyrenophora teres it was 100%; in the data set on Alternaria solani, 100%. Further, in data set [1] (setting [2]), the logP turned out to be 3.29.

As for `Cn1nc(C(F)F)c(C(=O)N(Cc2c(C(F)(F)F)nn(C)c2OC(F)F)C2CC2)c1F` [Example 170], the Efficacy worked out at 88% in the data set with Sphaerotheca fuliginea, 100% in the data set on Pyrenophora teres and 95% in the data set with Alternaria solani. In addition, in data set [1] (setting [3]), the logP was 2.76.

As to `Cc1nn(-c2ccccc2)nc1CN(C(=O)c1c(C(F)F)nn(C)c1F)C1CC1` [Example 131], the Efficacy with Sphaerotheca fuliginea came to 97%; with Pyrenophora teres, 95%; in the data set on Alternaria solani, 90%. For the same compound, the logP in data set [1] (setting [2]) was 3.29.

For `Cn1nc(C(F)F)c(C(=S)N(Cc2cc3ccccc3o2)C2CC2)c1F` [Example 73], the Efficacy in the data set on Sphaerotheca fuliginea was 85%; in the data set on Pyrenophora teres, 100%; with Alternaria solani, 90%. Also, the logP in data set [1] (setting [2]) came to 3.76.

The compound `CC(NC(=O)c1c(C(F)F)nn(C)c1Cl)c1cc2ccccc2s1` (racemic) [Example 81] returned a logP in data set [1] (setting [2]) of 3.13. For the same compound, the Efficacy in the data set on Pyrenophora teres worked out at 90%; with Alternaria solani, 100%.

As for `Cn1nc(C(F)F)c(C(=O)N(Cc2cccc3ccsc23)C2CC2)c1Cl` [Example 94], the logP in data set [1] (setting [2]) is 3.31. Besides, the Efficacy with Pyrenophora teres and in the data set with Alternaria solani was 95% in each case.

For `Cn1nc(C(F)F)c(C(=O)N(Cc2cc(CC(C)(C)C)no2)C2CC2)c1F` [Example 106], in data set [1] (setting [2]), the log partition coefficient (logP) stood at 3.17. Further, the Efficacy stood at 100% in the data set on Pyrenophora teres and 95% in the data set on Alternaria solani.

On to `Cn1nc(C(F)F)c(C(=S)N(Cc2cc(C(F)(F)F)nc3ccccc23)C2CC2)c1F` [Example 161], for which the Efficacy in the data set with Sphaerotheca fuliginea and with Pyrenophora teres was 100% each time. In data set [1] (setting [2]), this compound showed a logP of 4.26.

In data set [1] (setting [2]), `Cn1nc(C(F)F)c(C(=O)N(Cc2cc(-c3cc(F)c(F)c(F)c3)no2)C2CC2)c1F` [Example 165] yielded a logP of 3.53. Besides, the Efficacy in the data set on Pyrenophora teres and in the data set on Alternaria solani was 100% throughout.

`Cn1nc(C(F)F)c(C(=O)N(Cc2ccc(Cl)nc2)C2CC2)c1F` [Example 67] returned a log partition coefficient (logP) in data set [1] (setting [2]) of 2.25. The Efficacy with Pyrenophora teres was determined as 90%; in the data set with Alternaria solani, 95%.

For the compound `Cn1nc(C(F)F)c(C(=O)N(Cc2cccs2)C2CC2)c1F` [Example 32], the results for the Efficacy with Sphaerotheca fuliginea, in the data set with Pyrenophora teres and in the data set on Alternaria solani were 95%, 100% and 70%, respectively. Also, in data set [1] (setting [2]), the logP is reported as 2.59.

The compound `CC(c1cnc(Cl)c(Cl)c1)N(C(=O)c1c(C(F)F)nn(C)c1Cl)C1CC1` (centres unmarked) [Example 120] yielded a logP in data set [1] (setting [2]) of 3.27. Moreover, the Efficacy with Pyrenophora teres was 100%; in the data set with Alternaria solani, 90%.

On to `CN(Cc1cc(CC(C)(C)C)no1)C(=O)c1c(C(F)F)nn(C)c1F` [Example 105], for which the logP in data set [1] (setting [2]) is recorded as 2.75. Further, the Efficacy was determined as 100% in the data set with Pyrenophora teres and 95% in the data set with Alternaria solani.

In data set [1] (setting [2]), `CN(Cc1sc2ccccc2c1Cl)C(=O)c1c(C(F)F)nn(C)c1F` [Example 142] came in with a logP of 3.48. The Efficacy was found to be 100% in the data set with Pyrenophora teres and 80% in the data set with Alternaria solani.

The compound `CSc1ncc(C(C(C)C)N(C)C(=O)c2c(C(F)F)nn(C)c2F)c(C(F)(F)F)n1` (centres unmarked) [Example 157] yielded a logP in data set [1] (setting [2]) of 3.46. The Efficacy came out at 90% in the data set on Pyrenophora teres and 70% in the data set with Alternaria solani.

`CN(Cc1nc(-c2ccccc2)no1)C(=O)c1c(C(F)F)nn(C)c1F` [Example 114]: the logP in data set [1] (setting [2]) was determined as 2.58. In addition, the Efficacy in the data set with Pyrenophora teres and with Alternaria solani was 95% throughout.

`Cn1nc(C(F)F)c(C(=O)N(Cc2nc3ccccc3s2)C2CC2)c1F` [Example 98] had a logP in data set [1] (setting [2]) of 2.68. Besides, the Efficacy in the data set on Pyrenophora teres came out at 100%; in the data set on Alternaria solani, 80%.

Compound `Cn1nc(C(F)F)c(C(=O)N(Cc2csc3ccccc23)C2CC2)c1Cl` [Example 89] displayed a logP in data set [1] (setting [2]) of 3.41. The Efficacy with Pyrenophora teres is listed as 95%; with Alternaria solani, 80%.

`CC(NC(=O)c1c(C(F)F)nn(C)c1F)c1cc2ccccc2s1` (racemic) [Example 82] returned a logP in data set [1] (setting [2]) of 2.98. For the same compound, the Efficacy stood at 90% with Pyrenophora teres and 100% in the data set on Alternaria solani.

In data set [1] (setting [2]), `Cc1cc(C(C)N(C(=O)c2c(C(F)F)nn(C)c2Cl)C2CC2)c(C)s1` (centres unmarked) [Example 49] had a logP of 3.79. The values for the Efficacy in the data set with Pyrenophora teres and in the data set with Alternaria solani were 95% and 80%, respectively.

On to `Cn1nc(C(F)F)c(C(=O)N(Cc2cnc(Cl)cc2Cl)C2CC2)c1F` [Example 118], for which the logP in data set [1] (setting [2]) stood at 2.73. Besides, the figures for the Efficacy in the data set with Pyrenophora teres and with Alternaria solani were 100% and 95%, respectively.

`CC(c1cnc(Cl)c(Cl)c1)N(C(=O)c1c(C(F)F)nn(C)c1F)C1CC1` (centres unmarked) [Example 121] registered a logP in data set [1] (setting [2]) of 3.11. Moreover, the values for the Efficacy in the data set on Pyrenophora teres and in the data set on Alternaria solani were 100% and 95%, respectively.

As to `Cn1nc(C(F)F)c(C(=O)N(Cc2cc(-c3ccc(Cl)cc3)no2)C2CC2)c1F` [Example 153], the logP in data set [1] (setting [2]) turned out to be 3.46. In addition, the Efficacy with Pyrenophora teres came to 100%; in the data set on Alternaria solani, 90%.

As to `Cn1nc(C(F)F)c(C(=O)N(Cc2ccnc3cc(Cl)cc(Cl)c23)C2CC2)c1F` [Example 163], the Efficacy in the data set with Sphaerotheca fuliginea was 100%; with Pyrenophora teres, 94%. For the same compound, in data set [1] (setting [2]), the logP is 3.39.

Compound `Cc1ccsc1CN(C(=O)c1c(C(F)F)nn(C)c1Cl)C1CC1` [Example 39] registered a logP in data set [1] (setting [2]) of 3.02. Besides, the Efficacy is 100% in the data set on Pyrenophora teres and 95% with Alternaria solani.

`Cn1nc(C(F)F)c(C(=O)N(Cc2ccco2)C2CC2)c1F` [Example 5] had a log partition coefficient (logP) in data set [1] (setting [2]) of 2.32. Also, the Efficacy in the data set with Pyrenophora teres came to 95%; in the data set on Alternaria solani it was 80%.

Take `Cc1nc(-c2ccc(Cl)cc2)sc1CN(C(=O)c1c(C(F)F)nn(C)c1F)C1CC1` [Example 167]: in data set [1] (setting [3]), the logP was 3.85. Moreover, the Efficacy with Pyrenophora teres amounted to 100%; with Alternaria solani, 90%.
